“Also recorded” adds a separate entry of the source.
Assays:
[1] = test system: edema of paw induced by PAF; experiment: edema of paw induced by platelet activation factor (PAF); assay type: in vivo, Swiss mice; conditions: WEB 2170 16 mg/Kg oral; PAF 1 μg/paw
Experimental: Swiss mice were stimulated through intraplant injection of 1 μg/paw of platelet activation factor (PAF) in one of the rear paws at the volume of 50 μL/paw. In the counter-lateral paw the same volume of vehicle injected (sterile saline free of pyrogens). The stimulus was performed in non-treated animals and animals pre-treated with 16 mg/Kg of antagonist to PAF WEB 2170 (p.o., 100 μL). Thirty minutes after the stimulus, the edema was analyzed by the digital plethysmograph, through the displacement of fluid (0.5 g NaCl; 3 mL Extran 100%/1 L) produced by insertion of each paw in the measurement tray. Each analysis was performed 3 times.

[2] = test system: edema of paw induced by zimosan; experiment: edema of paw induced by zimosan; assay type: in vivo, Swiss mice; conditions: diclophenac 100 mg/Kg oral; zimosan 500 μg/paw
Experimental: (§1) The animals were stimulated through intraplant injection of stimulus (zimosan or carrageenin) in one of rear paws with the volume of 50 μL/paw. Doses used were: 500 μg/paw of zimosan and 300 μg/paw of carrageenin. In the counter-lateral the same volume of vehicle was injected (sterile saline free of pyrogens). Four hours after the stimulus, the edema was analyzed at the digital plethysmograph, through of displacement of fluid (0.5 g NaCl; 3 mL Extran 100%/1 L) produced by insertion of each paw in the measurement tray. Each Analysis was performed 3 times.

[3] = test system: edema of paw induced by carrageenin; experiment: edema of paw induced by carrageenin; assay type: in vivo, Swiss mice; conditions: diclophenac 100 mg/Kg oral; carrageenin 300 μg/paw
Experimental: as §1

[4] = test system: pleurisis induced by carrageenin; experiment: pleurisis induced by carrageenin; assay type: in vivo, Swiss mice; conditions: diclophenac 100 mg/Kg p.o.; 4 h
Experimental: Pleurisis was induced through intra-thoracic injection (i.t) of carrageenin (300 μg/cavity) at the final volume of 100 μL (Henriques and col., 1991). The control group received 100 μL of vehicle (sterile saline). Four hours after the stimulus, the animals were sacrificed in of CO2 chamber, their thoracic pleural were exposed and washed with phosphate tampon (PBS) heparinized (20 UI/mL). The pleural cavity of the animals was washed with the help of an automatic pipette, at the volume of 1 mL. The pleural wash was collected and centrifuged (740 g, 10 minutes) to remove cells for posterior evaluation of the proteic exudation, as described as follows. Mice were previously injected intravenously at their orbital plexus with Evans blue 1% (25 mg/Kg), and a proteic exudation was evaluated through of overflowing of Evans blue, through spectrophotometer at λ 600 nm. The concentration of Evans blue was determined comparing the optical density (D.O.) of washes with a pattern curve of Evans blue (of 25.6 a 0.2 μg/mL). Results were expressed as μg/mL of Evans blue. The count of the number of total leucocytes in the pleural wash was made with the help of a Neubauer chamber as of a quota removed from the pleural wash, diluted 40 times in Turk liquid for the lise of erythrocytes. […] Results are expressed as number of cells (×10^6) by cavity.

[5] = test system: hyperalgesia induced by carrageenin; experiment: hyperalgesia induced by carrageenin (hot plate); assay type: in vivo, Wistar rats; conditions: dipyrone 100 mg/Kg p.o.
Experimental: (§2) The […] activity was evaluated through an essay of hyperalgesia, performed in a heated plate (Hot Plate, Ugo Basile-Italia model DS-37), with male Wistar rats. The essay is performed through placement of the animals on the hot plate, limited by an acrylic dome of approximately 18 cm in diameter by 40 cm in height.
The induction of hyperalgesic state was performed through the intraplant injection of 800 μg/paw of carrageenin in Wistar rats in one of the rear paws, at the final volume of 100 μL/paw. In the counter-lateral paw the same volume of vehicle (sterile saline free of pyrogens) was injected. The stimulus was performed in animals non-treated and in animals pre-treated with dipyrone (100 mg/Kg, p.o.). Three hours after the stimulus, the animals were placed in a hot plate at 52.5±0.5° C., and two chronometers are set to record the latency of response of withdrawal of each rear paw. Results were expressed in terms of variation of latency of withdrawal of left and right side paws, measured in seconds.

[6] = test system: edema of paw induced by histamine; experiment: edema of paw induced by histamine, oral pre-treatment; assay type: in vivo, Swiss mice; conditions: mice; promethazine 30 mg/Kg p.o.
Experimental: The animals were stimulated through interplant injection of stimulus (histamine, bradikinin and PAF—platelet-activating factor) in one of the rear paws with volumes of 50 or 100 μL/paw for mice or rats, respectively. The dosages used were: 100 μg/paw of histamine, 10 nmol/paw of bradykinin and 1 μg/paw of PAF (we notice that only bradykinin was injected in a volume of 50 μL). On the counter-lateral side of the paw the same volume of the vehicle (saline sterile free of pyrogen). Thirty minutes or one hour after the stimulus, the edema was analyzed at the digital plethysmograph, through of displacement of fluid (0.5 g NaCl; 3 mL Extran 100%/1 L) produced by the insertion of each paw in the measurement tray. Each analysis was performed 3 times.
(§3) The treatments with oil or tetranortriterpenoids were performed orally (p.o) 1 hour before the stimulation in conscious animals, kept in a previous fasting of 12 hours with free access to water. The treatment solutions were administered with the help of a curve needle with spherical end, with volumes of 200 μL or 400 μL for mice (of 25 g) or rats (of 200 g). The doses used were 200 or 400 mg/Kg for mice and 150 or 300 mg/Kg for rats. The tetranortriterpenoids were administered in doses of 12.5; 25; 50; 100 and 200 mg/Kg. […]

[7] = test system: hyperalgesia induced by histamine; experiment: hyperalgesia induced by histamine (hot plate); assay type: in vivo, Wistar rats; conditions: promethazine 30 mg/Kg p.o.
Experimental: as §2
The induction of a hyperalgesic state was performed through intraplant injection of 100 μg/paw of histamine in Wistar rats in one of the rear paws, at the final volume of 100 μL/paw. In the counter-lateral paw the same volume of vehicle (sterile saline free of pyrogens) was injected. The stimulus was performed in animals non-treated and in animals pre-treated with promethazine (30 mg/Kg, p.o.). Thirty minutes after the stimulus, the animals were placed in a hot plate at 52.5±0.5° C., and two chronometers are set to record the latency of response of withdrawal of each rear paw. Results were expressed in terms of variation of latency of withdrawal of left and right side paws, measured in seconds.
The induction of a hyperalgesic state was performed through intraplant injection of 100 μg/paw of histamine in Wistar rats in one of the rear paws, at a final volume of 100 μL/paw. […] Results were expressed in terms of variation of latency of withdrawal of left and right side paws, measured in seconds.

[8] = test system: edema of paw induced by egg albumin in sensitized mice; experiment: allergic edema of paw induced by egg albumin, oral pre-treatment; assay type: in vivo, Swiss mice; conditions: promethazine 30 mg/Kg oral, 1 h before, egg albumin 3 μg/paw
Experimental: This essay was made in animals previously sensitized through an subcutaneous injection (s.c.) in the dorsal region with 200 μL of a suspension containing 50 μg of egg albumin+5 mg (Al(OH)3) diluted in sterile saline free or pyrogens (200 μL/animal). The edema of paw was induced by an intraplant paw injection of egg albumin (3 μg/paw, no final volume of 50 μL) in one of the back paws, fourteen days after sensitization. The counter-lateral paw received an injection with the same volume of the vehicle (solution saline). The edema was analyzes in a digital plethysmograph, through the displacement of fluid (0.5 g NaCl; 3 mL Extran 100%/1 L) produced by the insertion of the paw in test in the measurement tray. Each analysis was performed 3 times. […]
For evaluation of the anti-allergenic activity of the oil of Carapa guianensis, the dosages of 200 and 400 mg/Kg were tested for mice and 150 and 300 mg/Kg for rats, depending on the model tested. […] The results were expressed as mean and pattern error of the mean and (AND.P.M.), and statistically analyzed through the analysis of the variance (ANOVA), followed by test of multiple comparisons of Newman-Kewls, or T of Student test with a level of significance minor or equal to 0.05 (p≦0.05).

[9] = test system: pleural exudation induced by histamine; experiment: pleurisy induced by histamine, pleural exudation (Evans blue); assay type: in vivo, Swiss mice; conditions: promethazine 30 mg/Kg p.o.; histamine 100 μg/cavity
Experimental: The pleurisy was induced through intra-thoracic injection (i.t) of histamine (100 μg/cavity) at the final volume of 100 μL. The control group received 100 μL of vehicle (sterile saline). One hour after the stimulus, the animals were sacrificed in a chamber CO2, their thoracic cavities were exposed and washed with phosphate tampon (PBS) heparinized (20 UI/mL). The pleural cavity of the animals was washed with the help of an automatic pipette, with volumes of 1 and 3 mL for mice and rats, respectively. The pleural wash was collected and centrifuged (740 g, 10 minutes) to remove the cells for posterior evaluation of the proteic exudation, as described as follows. In experiences made with mice, they were previously intravenously injected with Evans blue 1% (25 mg/Kg), at the orbital plexus and the proteic exudation was evaluated through overflow of Evans blue, through spectrophotometer at λ 600 nm. The concentration of Evans blue was determined comparing the optical density (D.O.) of washes with a pattern curve of Evans blue (of 25.6 a 0.2 μg/mL). Results were expressed as μg/mL of Evans blue. For analysis in rats, the exudation of pleural wash was evaluated by the measure of the volume collected from the cavity with the help of a graded syringe and the overflow of proteins was evaluated by the quantification of proteins at the supernatant by the method of Lowry (Lowry et al., 1951). […]

[10] = test system: ear edema induced by histamine; experiment: edema of ear induced by histamine (Evans blue); assay type: in vivo, mice; conditions: promethazine 10 mg/Kg p.o.; 30 minutes
Experimental: The ear edema was induced in anesthetized mice (pentobarbital 40 mg/kg, via intravenous, i.v.) with an intravenous injection (i.v.) in the orbital plexus of Evans blue 1% (25 mg/Kg), 24 hours before the stimulus. […] Thirty minutes after the stimulus, the animals were sacrificed in the chamber of CO2, and their ears were removed and placed in formamide (500 μL/ear) for 24 hours for the extraction of Evans blue. The concentration of Evans blue in the supernatant was analyzed through spectrophotometer (SpectraMax®) at λ 600 nm. The concentration of Evans blue is determined comparing the optical density é (D.O.) of a pattern curve (from 25.6 to 0.2 μg/mL).
as §3

[11] = test system: edema of paw induced by bradykinin; experiment: edema of paw induced by bradykinin; assay type: in vivo, Wistar rats; conditions: HOE 140 10 nmol/paw intraplant
Experimental: Wistar rats were stimulated through intraplant injection of 10 nmol/paw of bradykinin (BK) in one of the rear paws at the volume of 50 μL/paw (Henriques, 1991). In the counter-lateral paw was injected the same volume of vehicle (sterile saline free of pyrogens). The stimulus was performed in non-treated animals and in animals pre-treated through of an intraplant injection of 10 nmol/paw of antagonist to bradykinin HOE 140 at the volume of 50 μL. Thirty minutes after the stimulus, the edema was analyzed on the digital plethysmograph, through the displacement of fluid (0.5 g NaCl; 3 mL Extran 100%/1 L) produced by insertion of each paw in the measurement tray. Each analysis was performed 3 times.

## Cc1nnc2n1-c1sc3c(c1C(c1ccccc1Cl)=NC2)CC(C(=O)N1CCOCC1)C3 (centres unmarked) [WEB 2170]
[1]
  edema of paw induced by PAF: inhibition of edema

## O=C([O-])Cc1ccccc1Nc1c(Cl)cccc1Cl.[K+] [diclophenac, diclophenac of potassium]
[2]
  edema of paw induced by zimosan: inhibition
[3]
  edema of paw induced by carrageenin: inhibition
[4]
  proteic overflow induced by carrageenin in pleural cavity: able to significantly inhibit the proteic overflow induced by carrageenin

## Cc1c(N(C)CS(=O)(=O)[O-])c(=O)n(-c2ccccc2)n1C.[Na+] [dipyrone]
[5]
  hyperalgesia induced by carrageenin: inhibition of hyperalgesia

## CC(CN1c2ccccc2Sc2ccccc21)N(C)C (centres unmarked) [promethazine]
[6]
  edema of paw induced by histamine: inhibited
[7]
  hyperalgesia induced by histamine: inhibition of hyperalgesia
[8]
  allergic edema of paw induced by egg albumin: significantly inhibited; also recorded: inhibition of edema
[9]
  proteic overflow in pleurisis induced by histamine: able to significantly inhibit the proteic overflow induced by histamine
[10]
  ear edema induced by histamine: able to significantly inhibit the edema induced by histamine

## HOE 140
[11]
  edema of paw induced by bradykinin: inhibition of edema
